Data reported in patent publication US10000452B1, “Quinolone-based compounds, formulations, and uses thereof” (University of South Florida, priority 2016, dated 2018).
In brackets after ≈: the same amount, converted by molar mass. Several values for one entry are separate records, joined by “and”; a condition that tells them apart may be missing. Equal values may be shown once. Read-outs that look alike come from different tables or passages of the source.

Key:
[1] = system: malarial strain TM90-C2B (mefloquine, chloroquine, atovaquone, and pyrimethamine-resistant); assay: microbe, parasite or virus in culture; assay type: cell-based, P. falciparum; settings: for EC50: Plasmodium falciparum
Text: Ideally, the RI of a compound should lie between 0.3 and 3.0 in order to avoid rapidly inducing resistance in the parasite. […]

J774 mammalian cells = assay: cytotoxicity to J774 cells; assay type: cell-based; settings: Mus musculus
Experimental: This allowed a simplified method for comparing the different assays being simultaneously run. Additionally, each compound was also tested for cytotoxicity using mammalian J774 cell lines in a 96-well plate format.^12-14, 16

P. berghei-GFP parasites = assay: modified Thompson test; assay type: in vivo, P. berghei; mice; settings: for No. of Cures: survival to day 30 PI with parasitemia <1%
Experimental: Mice were infected with 1×10^6 P. berghei-GFP parasites and compounds were dosed orally on days 3, 4 and 5 PI with a dose of 10 mg/kg of compound suspended or dissolved in HEC/Tween or PEG 400. Parasitemia was observed by flow cytometry on days 3, 6, 9, 13, 21, and 30 PI. Compounds with animal survival up to day 30 PI and parasitemia levels of less than 1% on day 30 PI were considered to be cures. Lastly, animals with more than 40% parasitemia levels were euthanized.
On days 3, 6, 9, 13, 21, and 30 PE, parasitemia was monitored by Giemsa-stained blood smears. Both compounds were evaluated by the reduction of parasitemia on day 6 PE and the survival up to day 30 PE.

Pb-infected mice = assay: in vivo efficacy scouting assay against blood stages; parameters: species or system P. berghei; mice; settings: for inhibition in vivo at 50 mg/kg: Plasmodium berghei, 144 h, read-out: % Inhibition Day 6 PI; for activities in these scout assays: result in words
Experimental: The screening involved a single oral 50 mg/kg dose 1 day post infection (PI) and an assessment of parasitemia on days 3 PI and 6 PI (Table 6).
The screening was performed by treating two infected mice with a single 50 mg/kg oral dose of test compound suspended in PEG400 on day 1 postexposure (PE) followed by assessing parasitemia on days 3 and 6 PE.

[2] = system: P. berghei sporozoites expressing luciferase; assay: in vitro liver stage activity, luciferase sporozoites infecting HEPG2 hepatoma cells; assay type: cell-based; settings: Plasmodium berghei
[3] = system: malarial strain W2 (pyrimethamine and chloroquine-resistant); assay: in vitro antimalarial activity against multidrug resistant strain W2; assay type: cell-based, P. falciparum; settings: Plasmodium falciparum
[4] = aqueous solubility (LC/MS- or HPLC-based assay); assay type: physicochemical
Procedure, shortened: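 Aqueous solubility and log D (pH 7.4) determined by LC/MS-based assays; solubility examined at more than one pH.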

[5] = lipophilicity log D at pH 7.4; assay type: physicochemical; settings: octanol/water
Text: Furthermore, to profile the properties of the piperazinyl-4(1H)-quinolones, and to identify potential limitations, aqueous solubility and lipophilicity log D were experimentally determined via LC/MS-based assays as described by the Manetsch laboratory previously^8,10,31,32 (Tables 9-12). Encouragingly, the piperazinyl-4(1H)-quinolones were much more soluble than the previously described phenoxyethoxy-4(1H)-quinolone analogues.^19 As expected, the solubility of all compounds was affected by pH, with better solubility under more acidic conditions.
In parallel to testing the compounds for in vitro antimalarial activity, a limited structure-property relationship (SPR) study focusing on log D and aqueous solubility was conducted to assess potential physiochemical liabilities (FIG. 22). […] For these reasons, physicochemical properties were not strongly considered as selection criteria for in vivo efficacy studies.

[6] = system: P. berghei sporozoite infected mice; assay: in vivo efficacy against liver stages, bioluminescence imaging; settings: for % Inhibition Day 9 PI: single dose 1 hour after infection; for protection by bioluminescence imaging: 44 h, day 6, 9 and 13 PI, 25, 50, 100 mg/kg oral or subcutaneous, result in words
Experimental: Animals (n=5 per group) received a single dose by gavage 1 hour after inoculation with sporozoites. Representative images taken at 44 h, day 6, day 9, and day 13 after infection are shown. At 44 h, bioluminescent signal was detected in control untreated animals, with the highest intensity noted in the area overlaying the liver, consistent with the presence of liver-stage parasites.
At 44 h PI, day 6 PI, day 9 PI, and day 13 PI, compound efficacy was determined by bioluminescence imaging via injection of D-luciferin. Both compounds were administered orally or subcutaneously at increasing doses of 25 mg/kg, 50 mg/kg, and 100 mg/kg in PEG 400. […] Progression of parasitemia was monitored up to 30 days after infection (Table 8).

[7] = 10 mg/kg oral on days 3, 4 and 5 PI
[8] = TM90, read-out: EC50 TM90-C2B (nM)
[9] = Example 2: two mice, single 50 mg/kg oral dose in PEG400 on day 1 PE
[10] = single oral 50 mg/kg dose 1 day PI
[11] = single oral 50 mg/kg dose 1 day PI, vs untreated animals
[12] = aqueous solution, pH 2, simulated gastric fluid, pH 2.0, read-out: Solubility pH 2.0
[13] = aqueous solution, pH 6.5, aqueous buffer, pH 6.5, read-out: Solubility pH 6.5
[14] = aqueous solution (buffer not named), pH 2, simulated gastric fluid, pH 2.0, read-out: Solubility pH 2.0
[15] = aqueous solution (buffer not named), pH 6.5, aqueous buffer, pH 6.5, read-out: Solubility pH 6.5
[16] = 10 mg/kg oral on days 3, 4 and 5 PI, vs untreated control animals
[17] = aqueous medium, pH 2, simulated gastric fluid, pH 2.0, read-out: Solubility pH 2.0
[18] = aqueous medium, pH 6.5, aqueous buffer, pH 6.5, read-out: Solubility pH 6.5

Compound | No. of Cures (P. berghei-GFP parasites; [7]) | EC50 [1, 8] [nM] | inhibition in vivo at 50 mg/kg (Pb-infected mice; po) [%] | activities in these scout assays (Pb-infected mice; [10]) | % Inhibition Day 3 PI (Pb-infected mice; [11]) | % Inhibition Day 6 PI (Pb-infected mice; [11]) | EC50 (J774 mammalian cells; J774, read-out: EC50 J774 (μM)) [µM] | chromatographic logD [5] | EC50 ([2]; HEPG2 cells) [pM] | EC50 ([3]; read-out: EC50 W2 (nM)) [nM] | solubility [4, 14] [µM] | solubility [4, 15] [µM] | No. of Cures ([6]; 50 mg/kg oral) | other results
O=C1C(O)=C([C@H]2CC[C@H](c3ccc(Cl)cc3)CC2)C(=O)c2ccccc21 [Atovaquone, atovaquone, reference compound] | 5/5 | – | – | – | – | – | – | – | – | – | – | – | – | EC50 ([1]; TM90, read-out: EC50 TM90-C2B): 18400 nM; EC50 (J774 mammalian cells; J774, cytotoxicity, 96 well plate format, read-out: EC50 J774): 28.3 µM
CCCCc1cc2c(=O)c(C(=O)OC)c[nH]c2cc1OCCOc1ccccc1 [Compound 6b, Methyl 6-Butyl-4-oxo-7-(2-phenoxyethoxy)-1,4-dihydroquinoline-3-carboxylate, reference compound] | – | 7.89 | – | – | – | – | – | – | – | – | – | – | – | % inhibition on day 3 PE (Pb-infected mice; [9]): 76.9%; % inhibition on day 6 PE (Pb-infected mice; [9]): 49%; EC50 ([2]; HepG2, text values printed in pM): 52 pM; day mice were sacrificed (P. berghei-GFP parasites; Example 2: 10 mg/kg oral days 3, 4, 5, controls sacrificed day 13): 13; % inhibition on day 6 PE (P. berghei-GFP parasites; Example 2: 10 mg/kg oral days 3, 4, 5 in HEC/Tween, Giemsa-stained smears): no inhibition; EC50 ([3]; read-out: EC50 W2): 0.039 nM
COC(=O)c1c[nH]c2cc(CN3CCN(c4ccc(C(F)(F)F)cc4)CC3)c(OC)cc2c1=O [Compound 8ab, Methyl 6-methoxy-4-oxo-7-((4-(4-(trifluoromethyl)phenyl)piperazin-1-yl)methyl)-1,4-dihydroquinoline-3-carboxylate] | 3 of the 5 and 3/5 | – | > 85 | excellent activities | full inhibition | completely inhibited parasite growth | > 20 | 1.29 | 9580 | 6.42 | – | – | – | solubility [4, 12]: 1 to 19.9 µM (≈ 0.475 to 9.46 µg/mL); solubility [4, 13]: 1 to 19.9 µM (≈ 0.475 to 9.46 µg/mL)
O=c1c(Br)c[nH]c2cc(CN3CCN(c4ccc(F)cc4)CC3)ccc12 [Compound 8ak, 3-Bromo-7-((4-(4-fluorophenyl)piperazin-1-yl)methyl) quinolin-4(1H)-one] | 0/5 | 2430 | – | – | – | – | > 20 | 2.91 | 858 | 812 | ≥ 80 | 20 to 39.9 (≈ 8.33 to 16.6 µg/mL) | – | % Inhibition Day 6 PI (P. berghei-GFP parasites; [16]): low inhibition
Cc1[nH]c2cc(CN3CCN(c4ccc(F)cc4)CC3)ccc2c(=O)c1Br [Compound 8an, 3-Bromo-7-((4-(4-fluorophenyl)piperazin-1-yl)methyl)-2-methylquinolin-4(1H)-one] | 0/5 | 25.5 | > 85 | excellent activities | full inhibition | completely inhibited parasite growth | > 20 | 2.83 | 26200 | 25.1 | ≥ 80 | 1 to 19.9 (≈ 0.43 to 8.56 µg/mL) | – | Avg. Day of Death (P. berghei-GFP parasites; [7]): 13; inhibition in vivo at 10 mg/kg (P. berghei-GFP parasites; Plasmodium berghei, in Mus musculus, 144 h, 10 mg/kg oral on days 3, 4 and 5 PI, vs untreated control animals, read-out: % Inhibition Day 6 PI): 90.9%
Cc1[nH]c2cc(CN3CCN(c4ccc(F)cc4)CC3)ccc2c(=O)c1Cl [Compound 8ao, 3-Chloro-7-((4-(4-fluorophenyl)piperazin-1-yl)methyl)-2-methylquinolin-4(1H)-one] | 0/5 | 52.1 | – | – | – | – | > 20 | 2.73 | – | 38.5 | ≥ 80 | 1 to 19.9 (≈ 0.386 to 7.68 µg/mL) | – | % Inhibition Day 6 PI (P. berghei-GFP parasites; [16]): low inhibition
COC(=O)c1c[nH]c2cc(CN3CCN(c4ccccc4)CC3)ccc2c1=O [Compound 8j, Methyl 4-oxo-7-((4-phenylpiperazin-1-yl)methyl)-1,4-dihydroquinoline-3-carboxylate] | – | 483 | – | – | – | – | – | 0.86 | 4740 | 1.25 | – | – | 2/5 | solubility [4, 17]: ≥ 80 µM; solubility [4, 18]: ≥ 80 µM; No. of Cures ([6]; 25 mg/kg oral): 2/5; % Inhibition Day 9 PI ([6]; 25 mg/kg oral): 65.3%; % Inhibition Day 9 PI ([6]; 50 mg/kg oral): 85.1%; No. of Cures ([6]; 50 mg/kg subcutaneous): 3/5; % Inhibition Day 9 PI ([6]; 50 mg/kg subcutaneous): >99.0%; No. of Cures ([6]; 100 mg/kg oral): 5/5; % Inhibition Day 9 PI ([6]; 100 mg/kg oral): >99.0%; protection by bioluminescence imaging [6]: no luminescence was observed; animals cured (survival curves) ([6]; over all doses tested, 25-100 mg/kg): two or more out of five
COC(=O)c1c[nH]c2cc(CN3CCN(Cc4ccc(OC)cc4)CC3)ccc2c1=O [Compound 8l, Methyl 7-((4-(4-methoxybenzyl)piperazin-1-yl)methyl)-4-oxo-1,4-dihydroquinoline-3-carboxylate] | – | 799 | – | – | – | – | – | 1.66 | 83400 | 2.5 | – | – | 0/5 | inhibition in vivo at 50 mg/kg (Pb-infected mice; [11]): ~40%; solubility [4, 17]: ≥ 80 µM; solubility [4, 18]: ≥ 80 µM; No. of Cures ([6]; 25 mg/kg oral): 0/5; % Inhibition Day 9 PI ([6]; 25 mg/kg oral): 49.1%; No. of Cures ([6]; 50 mg/kg subcutaneous): 0/5; % Inhibition Day 9 PI ([6]; 50 mg/kg subcutaneous): 20.1%; No. of Cures ([6]; 100 mg/kg oral): one of five and 1/5; protection by bioluminescence imaging [6]: full protection at all time points only at an oral dose of 100 mg/kg
COC(=O)c1c[nH]c2cc(CN3CCN(c4ccc(C(F)(F)F)cc4)CC3)c(C)cc2c1=O [Compound 8v, Methyl 6-methyl-4-oxo-7-((4-(4-(trifluoromethyl)phenyl)piperazin-1-yl)methyl)-1,4-dihydroquinoline-3-carboxylate] | 3 of the 5 and 3/5 | 101 | > 85 | excellent activities | full inhibition | completely inhibited parasite growth | > 20 | 3.73 | – | 0.066 | – | – | – | RI ([1]; RI = EC50 TM90-C2B/EC50 W2): 1530; solubility [4, 12]: ≥ 80 µM; solubility [4, 13]: 1 to 19.9 µM (≈ 0.459 to 9.14 µg/mL); EC50 ([3]; read-out: EC50 W2): 0.066 nM
COc1cc(NC(C)CCCN)c2ncccc2c1 (stereo not shown) [Primaquine, reference compound] | – | – | – | – | – | – | – | – | – | – | – | – | 2/5 | % Inhibition Day 9 PI ([6]; 50 mg/kg oral): >99.0%
